ChEMBL document CHEMBL1201862, “PubChem BioAssay data set” (2004)
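Tested at 5 concentrations; 48 h exposure; 96-well plates; endpoints linearly interpolated, else capped at highest concentration. GI50 is the concentration that inhibits growth by half.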 The source made the active and inactive calls. No stated cut-off is given here; in the data, active = GI50 up to about 1.1 µM and inactive = higher.

Assays:
Assay in all cases: NCI-60 cell line screen, 48 h
SF-268 = tested on: SF-268
SK-OV-3 = tested on: SK-OV-3
RXF 393 = tested on: RXF 393
SF-539 = tested on: SF-539
HCT-116 = tested on: HCT-116
DLD-1 = tested on: DLD-1
OVCAR-3 = tested on: OVCAR-3
CCRF-CEM = tested on: CCRF-CEM
MOLT-4 = tested on: MOLT-4
UACC-257 = tested on: UACC-257
SNB-19 = tested on: SNB-19
K562 = tested on: K562
HCC 2998 = tested on: HCC 2998
RPMI-8226 = tested on: RPMI-8226
U-251 = tested on: U-251
EKVX = tested on: EKVX
OVCAR-5 = tested on: OVCAR-5
IGROV-1 = tested on: IGROV-1
NCI-H522 = tested on: NCI-H522
SK-MEL-5 = tested on: SK-MEL-5
HOP-92 = tested on: HOP-92
OVCAR-4 = tested on: OVCAR-4
Malme-3M = tested on: Malme-3M
NCI/ADR-RES = tested on: NCI/ADR-RES
SW-620 = tested on: SW-620
XF498 = tested on: XF498
HOP-62 = tested on: HOP-62
MCF7 = tested on: MCF7
NCI-H226 = tested on: NCI-H226
SN12C = tested on: SN12C
HOP-18 = tested on: HOP-18
KM12 = tested on: KM12
UO-31 = tested on: UO-31
SNB-75 = tested on: SNB-75
SK-MEL-2 = tested on: SK-MEL-2
NCI-H460 = tested on: NCI-H460
HCT-15 = tested on: HCT-15
SK-MEL-28 = tested on: SK-MEL-28
COLO 205 = tested on: COLO 205
A498 = tested on: A498
A549 = tested on: A549
NCI-H23 = tested on: NCI-H23
UACC-62 = tested on: UACC-62
OVCAR-8 = tested on: OVCAR-8
LOX IMVI = tested on: LOX IMVI
HL-60 = tested on: HL-60
HT-29 = tested on: HT-29
DMS-273 = tested on: DMS-273
KM-20L2 = tested on: KM-20L2
SF-295 = tested on: SF-295
DMS-114 = tested on: DMS-114
SNB-78 = tested on: SNB-78
CAKI-1 = tested on: CAKI-1

CNC(=O)SCC(N)C(=O)O (stereo not drawn)
GI50 (SF-268): > 100 µM (inactive) | GI50 (SK-OV-3): > 100 µM (inactive) | GI50 (RXF 393): > 100 µM (inactive) | GI50 (SF-539): > 100 µM (inactive) | GI50 (HCT-116): > 79.4 µM (inactive) | GI50 (DLD-1): > 100 µM (inactive) | GI50 (OVCAR-3): > 100 µM (inactive) | GI50 (CCRF-CEM): 25.8 µM (inactive) | GI50 (MOLT-4): 38.2 µM (inactive) | GI50 (UACC-257): > 100 µM (inactive) | GI50 (SNB-19): > 100 µM (inactive) | GI50 (K562): 30.6 µM (inactive) | GI50 (HCC 2998): > 100 µM (inactive) | GI50 (RPMI-8226): 25.4 µM (inactive) | GI50 (U-251): > 89.9 µM (inactive) | GI50 (EKVX): > 100 µM (inactive) | GI50 (OVCAR-5): > 100 µM (inactive) | GI50 (IGROV-1): > 100 µM (inactive) | GI50 (NCI-H522): > 67.9 µM (inactive) | GI50 (SK-MEL-5): > 78.7 µM (inactive) | GI50 (HOP-92): 51.9 µM (inactive) | GI50 (OVCAR-4): > 100 µM (inactive) | GI50 (Malme-3M): > 100 µM (inactive) | GI50 (NCI/ADR-RES): > 100 µM (inactive) | GI50 (SW-620): > 85.9 µM (inactive) | GI50 (XF498): 84.9 µM (inactive) | GI50 (HOP-62): > 100 µM (inactive) | GI50 (MCF7): > 100 µM (inactive) | GI50 (NCI-H226): > 84.7 µM (inactive) | GI50 (SN12C): > 95.9 µM (inactive) | GI50 (HOP-18): > 78.2 µM (inactive) | GI50 (KM12): > 100 µM (inactive) | GI50 (UO-31): > 100 µM (inactive) | GI50 (SNB-75): > 100 µM (inactive) | GI50 (SK-MEL-2): > 82 µM (inactive) | GI50 (NCI-H460): > 68.7 µM (inactive) | GI50 (HCT-15): 46 µM | GI50 (SK-MEL-28): > 100 µM (inactive) | GI50 (COLO 205): 61.1 µM (inactive) | GI50 (A498): > 100 µM (inactive) | GI50 (A549): > 100 µM (inactive) | GI50 (NCI-H23): > 84.1 µM (inactive) | GI50 (UACC-62): > 94.8 µM (inactive) | GI50 (OVCAR-8): > 100 µM (inactive) | GI50 (LOX IMVI): 42.2 µM (inactive) | GI50 (HL-60): 25.2 µM (inactive) | GI50 (HT-29): > 71.3 µM (inactive) | GI50 (DMS-273): 71.4 µM (inactive) | GI50 (KM-20L2): > 100 µM (inactive) | GI50 (SF-295): > 66.2 µM (inactive) | GI50 (DMS-114): 35.3 µM (inactive) | GI50 (SNB-78): > 100 µM (inactive) | GI50 (CAKI-1): 65.8 µM (inactive)
